Reference: patent US12157742B2, “Kinase inhibitors exhibiting anti-cancer activity and their method of use” (ALLCRON PHARMA INC., priority 2018, dated 2024)
Structures can show the parent of a compound that is named as a salt.

Experiments:
Set-up in all cases: cell survival: unit of the concentration uncertain
[1] = tested on: Ph+ALL cell line BV173-T315I; test: Cytotoxicity assay, BV173-T315I cells; format: cell-based
Experimental: (§1) Cytotoxicity assay: CML patient derived cell lines K562 expressing BCR-ABL T315I, Ph+ALL cell line BV173-T315I, and mouse cell line Ba/F3 T315I were used for cytotoxicity testing. All these cell lines express T315I mutant of BCR-ABL. BV-173-T315I is also a model for blast crisis, the terminal stage in CML. Cell lines were cultured in Iscove's Modified Dulbecco's Medium (IMDM) containing L-glutamine and 25 mM Hepes. The cells were maintained at 37° C. in a humidified CO2 incubator. For cytotoxicity measurement 5000-8000 cells were plated into 96 well plates in quadruplicates. Drugs were dissolved in DMSO and cells were treated in increasing doses ranging from 1 to 10^7 fold. Control cells were treated with respective amounts of DMSO. Cells were incubated for 72 hours and, at the end of the incubation point cell, viability was determined. For this purpose, 25 μl of the cell culture from the 96 well plates were transferred to Ultracruz® black bottom 96 well plates (Santa Cruz Biotechnology) and 25 μl of a live cell detecting fluorescent reagent (Cellular Technology Limited (“CTL”)) was added to the cells. The cells and the CTL reagent was mixed thoroughly and centrifuged for 5 min, at the standard g levels normally used to accelerate settling of the cells to the bottom of the culture medium container without damaging the living cells, and the fluorescence was detected at 405 nm excitation using a CTL scanner. Viable cells will fluoresce green and the machine automatically scans and counts the number of viable cells from each well. The percentage of viable cells in drug treated samples relative to the number of viable cells in DMSO treated samples was then calculated. The data obtained were analyzed using Prism nonlinear regression software (Graphpad Software) for the curve fitting and determination of IC50 values.

[2] = tested on: mouse cell line Ba/F3 T315I; test: Cytotoxicity assay, Ba/F3-T315I cells; format: cell-based; settings: for cancer cell survival rate compared to the DMSO control: 72 hours
Experimental: as §1

[3] = tested on: K562 expressing BCR-ABL T315I; test: Cytotoxicity assay, K562-T315I cells; format: cell-based, human
Experimental: as §1

[4] = about 10^−6 M to about 10^−5 M, 72 hours

Cc1cccc(Cl)c1NC(=O)CSc1nc2cc3c(cc2cc1C#N)OCCO3 [AP-R342, N-(2-chloro-6-methylphenyl)-2-({8-cyano-2H,3H-[1,4]dioxino[2,3-g]quinolin-7-yl}sulfanyl)acetamide]
cancer cell survival rate compared to the DMSO control [1, 4]: less than 7% | cancer cell survival rate compared to the DMSO control ([2]; about 10^−6 M to about 10^−5 M): less than 7% | cancer cell survival rate compared to the DMSO control [3, 4]: less than 7%

Cc1cc(F)ccc1NC(=O)CSc1nc2cc3c(cc2cc1C#N)OCCO3 [AP-R343, 2-({8-cyano-2H,3H-[1,4]dioxino[2,3-g]quinolin-7-yl}sulfanyl)-N-(4-fluoro-2-methylphenyl)acetamide]
cancer cell survival rate compared to the DMSO control [1, 4]: less than 5% | cancer cell survival rate compared to the DMSO control ([2]; about 10^−6 M to about 10^−5 M): less than 5% | cancer cell survival rate compared to the DMSO control [3, 4]: less than 5%

N#Cc1cc2cc3c(cc2nc1SCC(=O)Nc1ccccc1C(N)=O)OCCO3 [AP-R230, 2-[2-(8-cyano-2H,3H-[1,4]dioxino[2,3-g]quinolin-7-ylsulfanyl)acetamido]benzamide]
cancer cell survival rate compared to the DMSO control ([2]; about 5 μM to about 10 μM): less than 4% | cancer cell survival rate compared to the DMSO control ([3]; about 5 μM to about 10 μM, 72 hours): less than 4%

Cc1cc(NC(=O)CSc2nc3cc4c(cc3cc2C#N)OCCO4)n(C)n1 [AP-R357, 2-((8-cyano-2,3-dihydro-[1,4]dioxino[2,3-g]quinolin-7-yl)thio)-N-(1,3-dimethyl-1H-pyrazol-5-yl)acetamide]
cancer cell survival rate compared to the DMSO control ([1]; about 30 μM, 72 hours): less than 6% | cancer cell survival rate compared to the DMSO control ([2]; about 30 μM): less than 7% | cancer cell survival rate compared to the DMSO control ([3]; about 30 μM, 72 hours): less than 20%

Cc1ccc(CN2CCCC2)cc1NC(=O)CSc1nc2cc3c(cc2cc1C#N)OCCO3 [AP-R235, 2-[(8-cyano-2,3-dihydro-[1,4]dioxino[2,3-g]quinolin-7-yl)sulfanyl]-N-[2-methyl-5-(pyrrolidin-1-ylmethyl)phenyl]acetamide hydrochloride]
cancer cell survival rate compared to the DMSO control ([2]; about 10 μM): less than 2% | cancer cell survival rate compared to the DMSO control ([3]; about 10 μM, 72 hours): less than 10%

Cc1cc(CN2CCCC2)ccc1NC(=O)CSc1nc2cc3c(cc2cc1C#N)OCCO3 [AP-R352, 2-((8-cyano-2,3-dihydro-[1,4]dioxino[2,3-g]quinolin-7-yl)thio)-N-(2-methyl-4-(pyrrolidin-1-ylmethyl)phenyl)acetamide dihydrochloride]
IC50 ([1]; 72 hours, read-out: IC50 for cell killing): 0.54 µM | IC50 ([2]; Mus musculus, BaF3, 72 hours, read-out: IC50 for cell killing): 0.8 µM | IC50 ([3]; Homo sapiens, 72 hours, read-out: IC50 for cell killing): 1.09 µM

Cc1nn(C)cc1NC(=O)CSc1nc2cc3c(cc2cc1C#N)OCCO3 [AP-R358, 2-((8-cyano-2,3-dihydro-[1,4]dioxino[2,3-g]quinolin-7-yl)thio)-N-(1,3-dimethyl-1H-pyrazol-4-yl)acetamide]
cell survival ([1]; at 0.625 (unit uncertain)): above 90% | cell survival ([1]; at 10 (unit uncertain)): about 20% | cell survival ([2]; at 0.625 (unit uncertain)): above 90% | cell survival ([2]; at 10 (unit uncertain)): about 20% | cell survival ([3]; at 0.625 (unit uncertain)): above 90% | cell survival ([3]; at 10 (unit uncertain)): about 20%

Cc1cc(C(=O)Nc2ccc(CN3CCN(C)CC3)cc2)ccc1NC(=O)CSc1nc2cc3c(cc2cc1C#N)OCCO3 [AP-R234, 4-[2-(8-cyano-2H,3H-[1,4]dioxino[2,3-g]quinolin-7-ylsulfanyl)acetamido]-3-methyl-N-4-[(4-methylpiperazin-1-yl)methyl]phenylbenzamide hydrochloride]
cancer cell survival rate compared to the DMSO control ([2]; dosage printed as 'about M'): less than 4% | cancer cell survival rate compared to the DMSO control ([3]; dosage printed as 'about M', 72 hours): less than 4%
